Data as given in patent US4546076A, “Enzymatic process for the determination of beta-lactam antibiotics” (U C B Societe Anonyme, priority 1982, dated 1985).

Key:
Type in all cases: biochemical
[1] = biological target: T1, D-alanyl-D-alanine-carboxypeptidase produced by Actinomadura R 39 (enzyme R 39), immobilized (Actinomadura sp., UniProt P39045); experiment: Dosage of cephalosporin C in serum with immobilized enzyme R 39 (Example 3)
T1 construct: which is excreted by Actinomadura R 39 when this microorganism; made in house; host or cells: Actinomadura R 39 (natural producer; deposit Institut Pasteur No. I-127), purified as in Frere et al., Biochem. J. 143 (1974) 233-240
T1 sequence (P39045 50-538): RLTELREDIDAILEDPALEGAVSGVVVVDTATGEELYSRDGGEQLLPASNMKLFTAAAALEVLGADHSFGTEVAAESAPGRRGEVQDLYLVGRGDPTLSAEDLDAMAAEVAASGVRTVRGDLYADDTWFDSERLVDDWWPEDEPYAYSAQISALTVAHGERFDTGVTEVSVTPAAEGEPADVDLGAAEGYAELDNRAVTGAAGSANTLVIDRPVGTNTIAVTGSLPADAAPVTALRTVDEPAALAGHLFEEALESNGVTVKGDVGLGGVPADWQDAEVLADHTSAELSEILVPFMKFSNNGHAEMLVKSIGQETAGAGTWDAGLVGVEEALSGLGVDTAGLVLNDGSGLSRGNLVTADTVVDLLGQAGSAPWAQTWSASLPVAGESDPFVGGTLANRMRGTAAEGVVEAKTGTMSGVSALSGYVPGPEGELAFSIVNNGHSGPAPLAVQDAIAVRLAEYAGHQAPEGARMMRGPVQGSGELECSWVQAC
Experimental: (§1) A series of 1 ml milk samples each containing a known concentration of penicillin G and two 1 ml milk samples (blank and control) not containing penicillin G are prepared.
(§2) 5.5 mg of immobilized enzyme R 39 (=3 picomols of enzyme) are added to each sample and the mixture is incubated for 20 minutes at 37° C.
(§3) The milk is then separated from the immobilized enzyme by filtration and the immobilized enzyme is washed three times with 1 ml of 0.1M Hepes buffer (pH=7.7) containing 0.1M NaCl and 0.05M MgCl2.
(§4) Either 20 μl of 0.1M Hepes buffer (pH=7.7) containing 0.1M NaCl and 0.05M MgCl2 and 10 μl of the substrate solution (in the case of the control sample and the samples containing penicillin G), or 20 μl of the Hepes buffer and 10 μl of water (in the case of the blank sample), are then added to the separated and washed immobilized enzyme. The mixture is incubated for 30 minutes at 37° C.
(§5) At the end of this incubation, 2 μl of the D-amino acid oxidase suspension, 60 μl of the FAD solution, 10 μl of the peroxidase solution and 5 μl of the o-dianisidine solution are added respectively to the product obtained; the mixture is then incubated again for 10 minutes at 37° C.
(§6) The optical density of the colored solutions obtained is then measured on a spectrophotometer. For this purpose, 1 ml of a methanol/water solution (proportions 1:1) is added to the cell and the optical density is measured at 460 nm.
(§7) The optical density value found for the blank sample is subtracted from the optical density values found respectively for the control sample and for the other samples. Finally, the percentage residual enzymatic activity is calculated for each sample from the optical density values thus obtained.
The procedure of Example 1 is followed, using the same reagents but replacing the 1 ml milk samples by 1 ml serum samples containing each a known concentration of cephalosporin C.

[2] = biological target: T1, D-alanyl-D-alanine-carboxypeptidase produced by Actinomadura R 39 (enzyme R 39), immobilized; experiment: Dosage of cephalosporin C in serum with immobilized enzyme R 39 at higher temperature (Example 4)
Experimental: The procedure of Example 3 is followed but each incubation is carried out at 47° C. and at half the time.
Moreover, to each ml sample of serum, there is previously added 100 μl of 0.5M (pH 7.7) Hepes buffer containing 0.5M NaCl and 0.25M MgCl2.

[3] = biological target: T1, D-alanyl-D-alanine-carboxypeptidase produced by Actinomadura R 39 (enzyme R 39), immobilized; experiment: Determination of penicillin G in urine with immobilized enzyme R 39 (Example 2); conditions: 1 ml urine; for percentage residual enzymatic activity: 20 min
Experimental: as §1, §2, §3, §4, §5, §6, §7
(§8) The procedure of Example 1 is followed, using the same reagents but replacing the 1 ml milk samples by 1 ml serum or 1 ml urine samples.

[4] = biological target: T1, D-alanyl-D-alanine-carboxypeptidase produced by Actinomadura R 39 (enzyme R 39), immobilized; experiment: Determination of penicillin G in serum with immobilized enzyme R 39 (Example 2); conditions: 1 ml serum; for percentage residual enzymatic activity: 20 min
Experimental: as §1, §2, §3, §4, §5, §6, §7, §8

[5] = biological target: T1, D-alanyl-D-alanine-carboxypeptidase produced by Actinomadura R 39 (enzyme R 39), immobilized; experiment: Determination of penicillin G in milk with immobilized enzyme R 39 (Example 1); conditions: for coloration observed / optical density at 460 nm / optical density found minus optical density of the blank sample / percentage residual enzymatic activity: 1 ml milk; for percentage residual enzymatic activity: 20 min
Experimental: as §1, §2, §3, §4, §5, §6, §7

[6] = cephalosporin C 1 ng/ml, 1 ml serum, 37° C.
[7] = cephalosporin C 2 ng/ml, 1 ml serum, 37° C.
[8] = cephalosporin C 10 ng/ml, 1 ml serum, 37° C.
[9] = cephalosporin C 1 ng/ml, 1 ml serum, each incubation at 47° C. and half the time
[10] = cephalosporin C 2 ng/ml, 1 ml serum, each incubation at 47° C. and half the time
[11] = cephalosporin C 10 ng/ml, 1 ml serum, each incubation at 47° C. and half the time
[12] = penicillin G 0.0005 I.U./ml, 1st series
[13] = penicillin G 0.0005 I.U./ml, 2nd series
[14] = penicillin G 0.0010 I.U./ml, 1st series
[15] = penicillin G 0.0010 I.U./ml, 2nd series
[16] = penicillin G 0.0015 I.U./ml, 2nd series
[17] = penicillin G 0.0020 I.U./ml, 1st series
[18] = penicillin G 0.0020 I.U./ml, 2nd series
[19] = penicillin G 0.0041 I.U./ml, 1st series
[20] = penicillin G 0.0082 I.U./ml, 1st series

## CC(=O)OCC1=C(C(=O)O)N2C(=O)[C@@H](NC(=O)CCC[C@@H](N)C(=O)O)[C@H]2SC1 [cephalosporin C]
[1]; 20 min, read-out: percentage residual enzymatic activity
  remaining activity at 0.001 µg/mL: 44%
[1]; 20 min, cephalosporin C 2 ng/ml, 1 ml serum, 37° C., read-out: percentage residual enzymatic activity
  remaining activity at 0.002 µg/mL: 8%
[1]; 20 min, cephalosporin C 10 ng/ml, 1 ml serum, 37° C., read-out: percentage residual enzymatic activity
  remaining activity at 0.01 µg/mL: 0%
[1]; [6]
  coloration observed: light yellow
  optical density at 460 nm: 0.085
  optical density found minus optical density of the blank sample: 0.055
[1]; [7]
  coloration observed: light yellow
  optical density at 460 nm: 0.040
  optical density found minus optical density of the blank sample: 0.010
[1]; [8]
  coloration observed: light yellow
  optical density at 460 nm: 0.030
  optical density found minus optical density of the blank sample: 0.000
[2]; 10 min, read-out: percentage residual enzymatic activity
  remaining activity at 0.01 µg/mL: 0%
[2]; 10 min, cephalosporin C 1 ng/ml, 1 ml serum, each incubation at 47° C. and half the time, read-out: percentage residual enzymatic activity
  remaining activity at 0.001 µg/mL: 41%
[2]; 10 min, cephalosporin C 2 ng/ml, 1 ml serum, each incubation at 47° C. and half the time, read-out: percentage residual enzymatic activity
  remaining activity at 0.002 µg/mL: 0%
[2]; [9]
  coloration observed: light brown
  optical density at 460 nm: 0.095
  optical density found minus optical density of the blank sample: 0.060
[2]; [10]
  coloration observed: light yellow
  optical density at 460 nm: 0.035
  optical density found minus optical density of the blank sample: 0.000
[2]; [11]
  coloration observed: light yellow
  optical density at 460 nm: 0.040
  optical density found minus optical density of the blank sample: 0.005

## CC1(C)S[C@@H]2[C@H](NC(=O)Cc3ccccc3)C(=O)N2[C@H]1C(=O)O [penicillin G, benzylpenicillin]
[3]
  concentration determined visually (light yellow coloration): at least 0.003 I.U./ml
[3]; penicillin G 0.003 I.U./ml
  coloration observed: light yellow
  optical density at 460 nm: 0.040
  optical density found minus optical density of the blank sample: 0.010
  percentage residual enzymatic activity: 8%
[3]; penicillin G 0.010 I.U./ml
  coloration observed: light yellow
  optical density at 460 nm: 0.035
  optical density found minus optical density of the blank sample: 0.005
  percentage residual enzymatic activity: 4%
[4]
  concentration determined visually (light yellow coloration): at least 0.003 I.U./ml
[4]; penicillin G 0.003 I.U./ml
  coloration observed: light yellow
  optical density at 460 nm: 0.035
  optical density found minus optical density of the blank sample: 0.005
  percentage residual enzymatic activity: 4%
[4]; penicillin G 0.010 I.U./ml
  coloration observed: light yellow
  optical density at 460 nm: 0.030
  optical density found minus optical density of the blank sample: 0.000
  percentage residual enzymatic activity: 0%
[5]; [12]
  coloration observed: brown
  optical density at 460 nm: 0.170
  optical density found minus optical density of the blank sample: 0.135
  percentage residual enzymatic activity: 82%
[5]; [13]
  coloration observed: yellow-brown
  optical density at 460 nm: 0.145
  optical density found minus optical density of the blank sample: 0.110
  percentage residual enzymatic activity: 69%
[5]; [14]
  coloration observed: yellow-brown
  optical density at 460 nm: 0.150
  optical density found minus optical density of the blank sample: 0.115
  percentage residual enzymatic activity: 69%
[5]; [15]
  coloration observed: yellow-brown
  optical density at 460 nm: 0.100
  optical density found minus optical density of the blank sample: 0.065
  percentage residual enzymatic activity: 41%
[5]; [16]
  coloration observed: yellow
  optical density at 460 nm: 0.055
  optical density found minus optical density of the blank sample: 0.020
  percentage residual enzymatic activity: 12%
[5]; [17]
  coloration observed: light yellow
  optical density at 460 nm: 0.035
  optical density found minus optical density of the blank sample: 0.000
  percentage residual enzymatic activity: 0%
[5]; [18]
  coloration observed: light yellow
  optical density at 460 nm: 0.040
  optical density found minus optical density of the blank sample: 0.005
  percentage residual enzymatic activity: 3%
[5]; [19]
  coloration observed: light yellow
  optical density at 460 nm: 0.040
  optical density found minus optical density of the blank sample: 0.005
  percentage residual enzymatic activity: 3%
[5]; [20]
  coloration observed: light yellow
  optical density at 460 nm: 0.035
  optical density found minus optical density of the blank sample: 0.000
  percentage residual enzymatic activity: 0%
[5]; sample containing 0.002 I.U. or more per ml of milk
  residual enzymatic activity: zero
